# Measured values from patent US9695155B2, “Herbicidal substituted pyrimidinyloxy benzene compounds” (E. I. DU PONT DE NEMOURS AND COMPANY, priority 2013, dated 2017).
# Assays:
# [1] = test system: barnyardgrass; assay: Test G flood (paddy water application); assay type: in vivo, Echinochloa crus-galli; settings: after 21 days, scale 0 to 100, 0 no effect, 100 complete control
# Text: (§1) Three plastic pots (ca. 16-cm diameter) per rate were partially filled with sterilized Tama silt loam soil comprising a 35:50:15 ratio of sand, silt and clay and 2.6% organic matter. Separate plantings for each of the three pots were as follows. Seeds from the U.S. of monochoria (Monochoria vaginalis), sedge, umbrella (small-flower umbrella sedge, Cyperus difformis), hardstem bulrush (Scirpus juncoides), and redstem (purple redstem, Ammannia coccinea), were planted into one 16-cm pot for each rate. Seeds from the U.S. of rice flatsedge (Cyperus iria), bearded sprangletop (Leptochloa fascicularis), one stand of 9 or 10 water seeded rice seedlings (Oryza sativa cv. ‘Japonica—M202’), and two stands of 3 or 4 transplanted rice seedlings (Oryza sativa cv. ‘Japonica—M202’) were planted into one 16-cm pot for each rate. Seeds from the U.S. of barnyardgrass (Echinochloa crus-galli), and late watergrass (Echinochloa oryzicola) were planted into one 16-cm pot for each rate. Plantings were sequential so that crop and weed species were at the 2.0 to 2.5-leaf stage at time of treatment.
# (§2) Potted plants were grown in a greenhouse with day/night temperature settings of 30/27° C., and supplemental balanced lighting was provided to maintain a 16-hour photoperiod. Test pots were maintained in the greenhouse until test completion.
# (§3) At time of treatment, test pots were flooded to 3 cm above the soil surface, treated by application of test compounds directly to the paddy water, and then maintained at that water depth for the duration of the test. Effects of treatments on rice and weeds were visually evaluated by comparison to untreated controls after 21 days. Plant response ratings, summarized in Table G, are based on a scale of 0 to 100 where 0 is no effect and 100 is complete control. A dash (-) response means no test result.
# [2] = test system: water seeded rice seedlings; assay: Test G flood (paddy water application); assay type: in vivo, Oryza sativa cv. ‘Japonica—M202’; settings: after 21 days, scale 0 to 100, 0 no effect, 100 complete control
# Text: as §1, §2, §3
# [3] = test system: transplanted rice seedlings; assay: Test G flood (paddy water application); assay type: in vivo, Oryza sativa cv. ‘Japonica—M202’; settings: after 21 days, scale 0 to 100, 0 no effect, 100 complete control
# Text: as §1, §2, §3
# [4] = test system: sedge, umbrella; assay: Test G flood (paddy water application); assay type: in vivo, Cyperus difformis; settings: after 21 days, scale 0 to 100, 0 no effect, 100 complete control
# Text: as §1, §2, §3
# [5] = test system: late watergrass; assay: Test G flood (paddy water application); assay type: in vivo, Echinochloa oryzicola; settings: after 21 days, scale 0 to 100, 0 no effect, 100 complete control
# Text: as §1, §2, §3
# [6] = test system: kochia; assay: Test F preemergence; assay type: in vivo, Kochia scoparia; settings: 21 days, scale 0 to 100
# Text: (§4) Seeds of plant species selected from bermudagrass (Cynodon dactylon), surinam grass (Brachiaria decumbens), large (Lg) crabgrass (Digitaria sanguinalis), crabgrass, naked (naked crabgrass, Digitaria nuda), foxtail, green (green foxtail, Setaria viridis), johnsongrass (Sorghum halepense), kochia (Kochia scoparia), morningglory (pitted morningglory, Ipomoea lacunosa), nutsedge, purple (purple nutsedge, Cyperus rotundus), ragweed (common ragweed, Ambrosia elatior), mustard, black (black mustard, Brassica nigra), guineagrass (Panicum maximum), dallisgrass (Paspalum dilatatum), barnyardgrass (Echinochloa crus-galli), sandbur (southern sandbur, Cenchrus echinatus), sowthistle (common sowthistle, Sonchus oleraceous), Italian ryegrass (Lolium multiflorum), signalgrass (broadleaf signalgrass, Brachiaria platyphylla), dayflower (Virginia (VA) dayflower, Commelina virginica), bluegrass (annual bluegrass, Poa annua), quackgrass (Elytrigia repens), mallow (common mallow, Malva sylvestris), buckwheat, wild (wild buckwheat, Polygonum convolvulus), leafy spurge (Euphorbia esula), chickweed (common chickweed, Stellaria media), wild poinsettia (Euphorbia heterophylla), and pigweed (Amaranthus retroflexus) were planted into a blend of loam soil and sand and treated preemergence with test chemicals formulated in a non-phytotoxic solvent mixture which included a surfactant.
# (§5) Treated plants and controls were maintained in a greenhouse for 21 days, after which time all species were compared to controls and visually evaluated. Plant response ratings, summarized in Table F, are based on a scale of 0 to 100 where 0 is no effect and 100 is complete control. A dash (-) response means no test result.
# [7] = test system: johnsongrass; assay: Test F preemergence; assay type: in vivo, Sorghum halepense; settings: 21 days, scale 0 to 100
# Text: as §4, §5
# [8] = test system: deadnettle; assay: Test C postemergence; assay type: in vivo, Lamium amplexicaule; settings: for Plant response rating (0 to 100), Deadnettle: postemergence; for Plant response rating, Deadnettle: Postemergence, scale 0 to 100 (0 no effect, 100 complete control)
# Text: Seeds of plant species selected from blackgrass (Alopecurus myosuroides), Italian ryegrass (Lolium multiflorum), wheat, winter (winter wheat, Triticum aestivum), galium (catchweed bedstraw, Galium aparine), corn (Zea mays), large (Lg) crabgrass (Digitaria sanguinalis), giant foxtail (Setaria faberii), johnsongrass (Sorghum halepense), lambsquarters (Chenopodium album), morningglory (Ipomoea coccinea), yellow nutsedge (Cyperus esculentus), pigweed (Amaranthus retroflexus), ragweed (common ragweed, Ambrosia elatior), soybean (Glycine max), barnyardgrass (Echinochloa crus-galli), oilseed rape (Brassica napus), waterhemp (common waterhemp, Amaranthus rudis), kochia (Kochia scoparia), wild oat (Avena fatua), surinam grass (Brachiaria decumbens), foxtail, green (green foxtail, Setaria viridis), goosegrass (Eleusine indica), bromegrass, downy (downy bromegrass, Bromus tectorum), nightshade (eastern black nightshade, Solanum ptycanthum), cocklebur (common cocklebur, Xanthium strumarium), cupgrass, woolly (woolly cupgrass, Eriochloa villosa), bermudagrass (Cynodon dactylon), sunflower, (common oilseed sunflower, Helianthus annuus), Russian thistle (Salsola kali), and velvetleaf (Abutilon theophrasti) were planted into a blend of loam soil and sand and treated preemergence with test chemicals formulated in a non-phytotoxic solvent mixture which included a surfactant.
# At the same time, plants selected from these crop and weed species and also barley, winter (winter barley, Hordeum vulgare), windgrass (Apera spica-venti), chickweed (common chickweed, Stellaria media), deadnettle (henbit deadnettle, Lamium amplexicaule), and canarygrass (littleseed canarygrass, Phalaris minor) were planted in pots containing Redi-Earth® planting medium (Scotts Company, 14111 Scottslawn Road, Marysville, Ohio 43041) comprising spaghnum peat moss, vermiculite, wetting agent and starter nutrients and treated with postemergence applications of test chemicals formulated in the same manner. Plants ranged in height from 2 to 18 cm (1- to 4-leaf stage) for postemergence treatments. Treated plants and controls were maintained in a greenhouse for 13 to 15 days, after which time all species were compared to controls and visually evaluated. Plant response ratings, summarized in Table C, are based on a scale of 0 to 100 where 0 is no effect and 100 is complete control. A dash (-) response means no test result.
Structure (SMILES),"Plant response rating, Barnyardgrass ([1]; 32 g ai/ha)","Plant response rating, Barnyardgrass ([1]; 64 g ai/ha)","Plant response rating, Barnyardgrass ([1]; 125 g ai/ha)","Plant response rating, Barnyardgrass ([1]; 250 g ai/ha)","Plant response rating, Rice, Water Seeded ([2]; 64 g ai/ha)","Plant response rating, Rice, Water Seeded ([2]; 125 g ai/ha)","Plant response rating, Rice, Water Seeded ([2]; 250 g ai/ha)","Plant response rating, Sedge, Umbrella ([4]; 32 g ai/ha)","Plant response rating, Sedge, Umbrella ([4]; 64 g ai/ha)","Plant response rating, Sedge, Umbrella ([4]; 125 g ai/ha)","Plant response rating, Sedge, Umbrella ([4]; 250 g ai/ha)","Plant response rating, Watergrass, Late ([5]; 32 g ai/ha)","Plant response rating, Watergrass, Late ([5]; 64 g ai/ha)","Plant response rating, Watergrass, Late ([5]; 125 g ai/ha)","Plant response rating, Watergrass, Late ([5]; 250 g ai/ha)","Plant response rating (0 to 100), Deadnettle ([8]; 125 g ai/ha)","Plant response rating (0 to 100), Deadnettle ([8]; 250 g ai/ha)","Plant response rating, Deadnettle ([8]; 31 g ai/ha, 13 to 15 days)","Plant response rating, Deadnettle ([8]; 62 g ai/ha)",also measured
FC(F)(F)c1cnn(-c2ccccc2Oc2ncc(Cl)cn2)c1 [Compound 16],0,40,100,100,90,100,100,0,60,100,100,0,0,0,80,,,,,"Plant response rating, Rice, Water Seeded ([2]; 32 g ai/ha): 50; Plant response rating, Rice, Transplanted ([3]; 32 g ai/ha): 0"
"N#Cc1cccc(Oc2ncc(Cl)cn2)c1-n1cc(C(F)(F)F)cn1 [Compound 58, 3-[(5-chloro-2-pyrimidinyl)oxy]-2-[4-(trifluoromethyl)-1H-pyrazol-1-yl]benzonitrile]",,,,,,,,,,,,,,,,,,,,"Plant response rating, Kochia ([6]; 16 g ai/ha): 98; Plant response rating, Kochia ([6]; 31 g ai/ha): 100; Plant response rating, Kochia ([6]; 62 g ai/ha): 100; Plant response rating, Kochia ([6]; 125 g ai/ha): 100; Plant response rating, Kochia ([6]; 250 g ai/ha): 100; Plant response rating, Johnsongrass ([7]; 16 g ai/ha): 65; Plant response rating, Johnsongrass ([7]; 31 g ai/ha): 98; Plant response rating, Johnsongrass ([7]; 62 g ai/ha): 100; Plant response rating, Johnsongrass ([7]; 125 g ai/ha): 100; Plant response rating, Johnsongrass ([7]; 250 g ai/ha): 100"
"Fc1cnc(Oc2ccccc2-n2cc(Br)cn2)nc1 [Compound 10, 2-[2-(4-bromo-1H-pyrazol-1-yl)phenoxy]-5-fluoropyrimidine]",,,,,,,,,,,,,,,,80,95,50,60,
"FC(F)(F)c1cnn(-c2ccccc2Oc2ncc(Br)cn2)c1 [Compound 18, 5-bromo-2-[2-[4-(trifluoromethyl)-1H-pyrazol-1-yl]phenoxy]pyrimidine]",0,20,35,100,60,90,100,0,20,35,100,0,0,0,70,,,,,"Plant response rating, Rice, Transplanted ([3]; 125 g ai/ha): 15; Plant response rating, Rice, Transplanted ([3]; 250 g ai/ha): 20"
"Clc1cnc(Oc2ccccc2-n2cc(Br)cn2)nc1 [Compound 7, 2-[2-(4-bromo-1H-pyrazol-1-yl)phenoxy]-5-chloropyrimidine]",,,,,,,,,,,,,,,,98,100,85,98,
